Our source for the IC50 values is patent US20120165326A1, “DERIVATIVES OF 6-(6-SUBSTITUTED-TRIAZOLOPYRIDAZINE-SULFANYL) 5-FLUORO BENZOTHIAZOLES AND 5-FLUORO BENZIMIDAZOLES, PREPARATION THEREOF, USE THEREOF AS DRUGS, AND USE THEREOF AS MET INHIBITORS” (SANOFI, priority 2009, published 2012).

For experiment [1], the target named is T1, MET (Homo sapiens, UniProt P08581). The experiment is described as follows: Test A: HTRF MET test in 96-well format. The class given is biochemical. Set-up: The recombinant DNA His-Tev-MET (956-1390) in pFastBac; His (N, cleaved yes); TEV cleavage site (N); made in house; host or cells: SF21 insect cells (baculovirus, pFastBac). The conditions noted are these: ATP 10 μM, MET 5 nM. As to the method: The recombinant DNA His-Tev-MET (956-1390) in pFastBac (invitrogen) is transfected into insect cells and, after several viral amplification steps, the final baculovirus stock is tested for expression of the protein of interest.
For the production of autophosphorylated protein, the preceding fractions are incubated for 1 hour at room temperature after addition of ATP 2 mM, MgCl2 2 mM, and Na3VO4 4 mM. After stopping the reaction with 5 mM of EDTA, the reaction mixture is injected onto a HiPrep desalting column (GE HealthCare) pre-equilibrated with buffer A+Na3VO4 4 mM, and the fractions containing the protein of interest (SDS PAGE analysis) are pooled and stored at −80° C. The degree of phosphorylation is checked by mass spectrometry (LC-MS) and by peptide mapping.
A) Test A: HTRF MET test in 96-well format
In a final volume of 50 μl of enzymatic reaction, MET 5 nM final is incubated in the presence of the test molecule (for a final concentration range of 0.17 nM to 10 μM, DMSO 3% final) in MOPS 10 mM pH 7.4, DTT 1 mM, 0.01% Tween 20 buffer. The reaction is initiated with the substrate solution to obtain final concentrations of poly-(GAT) 1 μg/ml, ATP 10 μM and MgCl2 5 mM. After incubation for 10 minutes at room temperature, the reaction is stopped with a mix of 30 μl to obtain a final solution of Hepes 50 mM pH 7.5, potassium fluoride 500 mM, 0.1% BSA and EDTA 133 mM in the presence of 80 ng of streptavidin 61SAXLB Cis-Bio Int. and 18 ng of anti-phosphotyrosine Mab PT66-Europium Cryptate per well. After incubation for 2 hours at room temperature, the reading is taken at two wavelengths, 620 nm and 665 nm, on a reader for the TRACE/HTRF technique and the percentage of inhibition is calculated from the 665/620 ratios.
(TR-FRET usually uses a lanthanide donor and a delayed reading to cut background.)
Target sequence in this assay (P08581 956-1390): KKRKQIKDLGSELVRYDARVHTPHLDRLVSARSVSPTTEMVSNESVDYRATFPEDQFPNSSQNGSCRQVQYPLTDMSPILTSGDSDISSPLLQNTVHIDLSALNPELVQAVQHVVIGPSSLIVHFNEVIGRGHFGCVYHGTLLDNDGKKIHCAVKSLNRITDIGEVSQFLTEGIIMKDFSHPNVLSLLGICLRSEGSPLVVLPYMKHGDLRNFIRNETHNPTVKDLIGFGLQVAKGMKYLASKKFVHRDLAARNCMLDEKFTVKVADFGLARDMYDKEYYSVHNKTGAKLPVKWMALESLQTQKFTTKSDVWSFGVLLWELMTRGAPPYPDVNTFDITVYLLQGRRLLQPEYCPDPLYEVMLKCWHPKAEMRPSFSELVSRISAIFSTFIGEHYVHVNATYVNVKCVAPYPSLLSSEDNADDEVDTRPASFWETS

For experiment [2], the target named is T1, MET. The experiment is described as follows: Test B: Inhibition of autophosphorylation of MET; ELISA technique (pppY1230,1234,1235) in MKN45 cells. The class given is cell-based. Set-up: Inoculated MKN45 cells in 96-well plates; endogenous in cells; host or cells: MKN45 cells. To be noted: 1 hour treatment, phosphoMET ELISA. The method, then:
B) Test B: Inhibition of autophosphorylation of MET; ELISA technique (pppY1230,1234,1235)
a) Cell lysates: Inoculated MKN45 cells in 96-well plates (Cell coat BD polylysine) to a rate of 20 000 cells/well in 200 μl in RPMI medium+10% FCS+1% L-glutamine. Leave to adhere for 24 hours in an incubator.
The cells are treated the day after inoculation with the products at six concentrations in duplicate for 1 hour. At least three control wells are treated with the same amount of final DMSO.
Product dilution: Stock at 10 mM in pure DMSO—range from 10 mM to 30 μM with an increment of 3 in pure DMSO—Intermediate 50-fold dilutions in the culture medium, followed by removal of 10 μl added directly to the cells (200 μl): final range from 10 000 to 30 nM.
At the end of incubation, delicately remove the supernatant and rinse with 200 μl of PBS. Next, place 100 μl of lysis buffer directly in the wells on ice and incubate at 4° C. for 30 minutes. Lysis buffer: 10 mM Tris-HCl pH 7.4, 100 mM NaCl, 1 mM EDTA, 1 mM EGTA, 1% Triton X-100, 10% glycerol, 0.1% SDS, 0.5% deoxycholate, 20 mM NaF, 2 mM Na3VO4, 1 mM PMSF and anti-protease cocktail.
The 100 μl of lysates are transferred into a V-bottomed polypropylene plate and ELISA is performed directly or the plate is frozen at −80° C.,
b) ELISA PhosphoMET SicSource Kit KH00281
Add 70 μl of kit dilution buffer+30 μL of cell lysates or 30 μl of lysis buffer for the blanks to each well of the kit plate. Incubate for 2 hours with gentle rocking at room temperature.
Rinse the wells four times with 400 μl of kit washing buffer. Incubate with 100 μl of anti-phospho MET antibody for 1 hour at room temperature.
Rinse the wells four times with 400 μL of kit washing buffer. Incubate with 100 μl of anti-rabbit HRP antibody for 30 minutes at room temperature (except for the wells with chromogen alone).
Rinse the wells four times with 400 μl of kit washing buffer. Introduce 100 μl of chromogen and incubate for 30 minutes in the dark at room temperature.
Stop the reaction with 100 μl of stop solution. Take the reading without delay, at […] 0.1 second on a Wallac Victor plate reader.
(ELISA stands for enzyme-linked immunosorbent assay.)
Target sequence in this assay (P08581 25-1390): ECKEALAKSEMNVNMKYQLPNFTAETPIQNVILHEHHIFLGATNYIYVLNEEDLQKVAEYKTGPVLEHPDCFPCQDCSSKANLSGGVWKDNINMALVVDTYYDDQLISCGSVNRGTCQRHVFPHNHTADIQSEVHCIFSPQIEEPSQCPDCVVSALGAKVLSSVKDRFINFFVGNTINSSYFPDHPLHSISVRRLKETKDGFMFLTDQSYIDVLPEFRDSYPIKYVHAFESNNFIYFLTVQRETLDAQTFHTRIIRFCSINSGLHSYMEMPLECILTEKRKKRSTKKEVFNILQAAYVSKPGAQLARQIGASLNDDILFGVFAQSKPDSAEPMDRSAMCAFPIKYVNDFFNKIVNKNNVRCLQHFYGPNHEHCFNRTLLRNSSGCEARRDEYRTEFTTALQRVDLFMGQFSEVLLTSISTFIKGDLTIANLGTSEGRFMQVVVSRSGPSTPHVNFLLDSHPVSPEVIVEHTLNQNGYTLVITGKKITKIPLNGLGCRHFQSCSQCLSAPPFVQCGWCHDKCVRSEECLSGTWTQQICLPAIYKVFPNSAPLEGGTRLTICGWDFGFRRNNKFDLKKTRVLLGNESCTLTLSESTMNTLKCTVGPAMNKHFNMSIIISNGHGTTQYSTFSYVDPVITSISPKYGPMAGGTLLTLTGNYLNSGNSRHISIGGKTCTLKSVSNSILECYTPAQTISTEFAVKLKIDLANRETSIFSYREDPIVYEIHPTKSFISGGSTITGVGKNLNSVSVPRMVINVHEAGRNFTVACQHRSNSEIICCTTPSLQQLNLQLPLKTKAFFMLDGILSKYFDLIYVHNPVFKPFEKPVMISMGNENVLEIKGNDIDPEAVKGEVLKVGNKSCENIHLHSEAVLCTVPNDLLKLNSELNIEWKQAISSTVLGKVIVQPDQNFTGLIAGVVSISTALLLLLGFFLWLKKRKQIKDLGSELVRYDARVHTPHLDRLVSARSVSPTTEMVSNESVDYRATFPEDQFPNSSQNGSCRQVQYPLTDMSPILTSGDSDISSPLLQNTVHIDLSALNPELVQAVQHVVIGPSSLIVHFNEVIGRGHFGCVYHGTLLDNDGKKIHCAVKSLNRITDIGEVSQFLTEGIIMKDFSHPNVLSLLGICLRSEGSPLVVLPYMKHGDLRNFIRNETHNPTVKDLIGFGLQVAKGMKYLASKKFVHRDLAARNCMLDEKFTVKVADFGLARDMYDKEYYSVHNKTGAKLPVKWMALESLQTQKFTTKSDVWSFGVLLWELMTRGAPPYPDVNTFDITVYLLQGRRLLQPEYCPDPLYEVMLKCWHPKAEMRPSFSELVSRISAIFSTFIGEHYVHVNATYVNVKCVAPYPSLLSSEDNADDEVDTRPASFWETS

Experiment [3] deals with HCT116 cells and MKN45 cells. The experiment is described as follows: Test C: Measurement of the cell proliferation via a 14C-thymidine pulse. In kind it is cell-based. To be noted: 14C-thymidine incorporation, 96 hours of treatment; cell line (HCT116 or MKN45) not stated. The method, then: C) Test C: Measurement of the Cell Proliferation Via a 14C-Thymidine Pulse
The cells are inoculated in Cytostar 96-well plates in 180 μl for 4 hours at 37° C. and 5% CO2: HCT116 cells at a rate of 2500 cells per well in DMEM medium+10% foetal calf serum+1% L-Glutamine and MKN45 cells at a rate of 7500 cells per well in RPMI medium+10% foetal calf serum+1% L-Glutamine. After these 4 hours of incubation, the products are added in 10 μl as a 20-fold concentrated solution according to the dilution method cited for ELISA. The products are tested at 10 concentrations in duplicate from 10 000 nM to 0.3 nM with an increment of 3.
After 72 hours of treatment, add 10 μl of 14C-thymidine at 10 μCi/ml to obtain 0.1 μCi per well. The incorporation of 14C-thymidine is measured on a Micro-Beta machine (Perkin-Elmer) after 24 hours of pulse and 96 hours of treatment.
All the test steps are automated on BIOMEK 2000 or TECAN stations.
In general terms: Dividing cells build labelled thymidine or BrdU into new DNA.

Bounds are passed on as bounds.

With `O=C(CN1CCN(C2CC2)CC1)Nc1nc2cc(F)c(Sc3nnc4ccc(OC5CCC5)nn34)cc2s1` [Example 8, N-(6-{[6-(cyclobutyloxy)[1,2,4]triazolo[4,3-b]pyridazin-3-yl]sulfanyl}-5-fluoro-1,3-benzothiazol-2-yl)-2-(4-cyclopropylpiperazin-1-yl)acetamide], the IC50 is < 100 nM on MET [1], < 100 nM on MET [2] and < 1000 nM in experiment [3].

In the case of `O=C(NCCN1CCOCC1)Nc1nc2cc(F)c(Sc3nnc4ccc(NC5CC5)nn34)cc2s1` [Example 5, 1-(6-{[6-(cyclopropylamino)[1,2,4]triazolo[4,3-b]pyridazin-3-yl]sulfanyl}-5-fluoro-1,3-benzothiazol-2-yl)-3-[2-(morpholin-4-yl)ethyl]urea], the half-maximal inhibitory concentration (IC50) on MET [1] was < 100 nM; against MET [2] it was < 100 nM; in experiment [3] it was < 1000 nM.

For `CCOc1ccc2nnc(Sc3cc4sc(NC(=O)CN5CCN(C6CC6)CC5)nc4cc3F)n2n1` [Example 7, 2-(4-cyclopropylpiperazin-1-yl)-N-{6-[(6-ethoxy[1,2,4]triazolo[4,3-b]pyridazin-3-yl)sulfanyl]-5-fluoro-1,3-benzothiazol-2-yl}acetamide], the 50% inhibitory concentration (IC50) at MET [1] was < 100 nM; against MET [2], < 100 nM; in experiment [3], < 1000 nM.

`O=C(NCCN1CCOCC1)Nc1nc2cc(F)c(Sc3nnc4ccc(-c5ccc(F)cc5)nn34)cc2s1` [Example 4, 1-(5-fluoro-6-{[6-(4-fluorophenyl)[1,2,4]triazolo[4,3-b]pyridazin-3-yl]sulfanyl}-1,3-benzothiazol-2-yl)-3-[2-(morpholin-4-yl)ethyl]urea]: the IC50 was < 100 nM at MET [1], < 100 nM at MET [2] and < 1000 nM in experiment [3].

For the molecule `CCN1CCN(CC(=O)Nc2nc3cc(F)c(Sc4nnc5ccc(OC6CCC6)nn45)cc3s2)CC1` [Example 10, N-(6-{[6-(Cyclobutyloxy)[1,2,4]triazolo[4,3-b]pyridazin-3-yl]sulfanyl}-5-fluoro-1,3-benzothiazol-2-yl)-2-(4-ethylpiperazin-1-yl)acetamide], the figures for the concentration for half-maximal inhibition (IC50) (on MET [1]; on MET [2]; in experiment [3]) were < 100 nM, < 100 nM and < 1000 nM, respectively.

In the case of `O=C(NCCN1CCOCC1)Nc1nc2cc(F)c(Sc3nnc4ccc(OC5CCCCC5)nn34)cc2s1` [Example 1, 1-(6-{[6-(Cyclohexyloxy)[1,2,4]triazolo[4,3-b]pyridazin-3-yl]sulfanyl}-5-fluoro-1,3-benzothiazol-2-yl)-3-[2-(morpholin-4-yl)ethyl]urea], the IC50 on MET [1] is < 100 nM; at MET [2], < 100 nM; in experiment [3] it was < 1000 nM.

For `CC(C)(C)OC(=O)Nc1nc2cc(F)c(Sc3nnc4ccc(-c5ccc(F)cc5)nn34)cc2s1` [Example 2, 2-Methylpropan-2-yl (5-fluoro-6-{[6-(4-fluorophenyl)[1,2,4]triazolo[4,3-b]pyridazin-3-yl]sulfanyl}-1,3-benzothiazol-2-yl)carbamate], the IC50 is < 100 nM at MET [1], < 100 nM against MET [2] and < 1000 nM in experiment [3].

In the case of `O=C(NCCN1CCOCC1)Nc1nc2cc(F)c(Sc3nnc4ccc(NC5CCCCC5)nn34)cc2s1` [Example 6, 1-(6-{[6-(cyclohexylamino)[1,2,4]triazolo[4,3-b]pyridazin-3-yl]sulfanyl}-5-fluoro-1,3-benzothiazol-2-yl)-3-[2-(morpholin-4-yl)ethyl]urea], the 50% inhibitory concentration (IC50) is < 100 nM on MET [1], < 100 nM on MET [2] and < 1000 nM in experiment [3].

Turning to `O=C(CN1CCN(C2CC2)CC1)Nc1nc2cc(F)c(Sc3nnc4ccc(OC5COC5)nn34)cc2s1` [Example 11, 2-(4-cyclopropylpiperazin-1-yl)-N-(5-fluoro-6-{[6-(oxetan-3-yl-oxy)[1,2,4]triazolo[4,3-b]pyridazin-3-yl]sulfanyl}-1,3-benzothiazol-2-yl)acetamide], the 50% inhibitory concentration (IC50) at MET [1] and against MET [2] was < 500 nM in each case.

Take `CCOc1ccc2nnc(Sc3cc4sc(NC(=O)CN5CCN(CC)CC5)nc4cc3F)n2n1` [Example 9, N-{6-[(6-ethoxy[1,2,4]triazolo[4,3-b]pyridazin-3-yl)sulfanyl]-5-fluoro-1,3-benzothiazol-2-yl}-2-(4-ethylpiperazin-1-yl)acetamide]: the half-maximal inhibitory concentration (IC50) was < 100 nM at MET [1], < 100 nM against MET [2] and < 1000 nM in experiment [3].

As to `Nc1nc2cc(F)c(Sc3nnc4ccc(-c5ccc(F)cc5)nn34)cc2s1` [Example 3, 5-fluoro-6-{[6-(4-fluorophenyl)[1,2,4]triazolo[4,3-b]pyridazin-3-yl]sulfanyl}-1,3-benzothiazol-2-amine], the half-inhibitory concentration (IC50) was < 100 nM on MET [1], < 100 nM against MET [2] and < 1000 nM in experiment [3].

In general, IC50 refers to the concentration that inhibits the measured activity by half.
